The results in this text go back to patent US20220213061A9, “HETEROCYCLIC COMPOUNDS FOR MODULATING NR2F6” (TES Pharma S.r.l., priority 2020, published 2022).

Counter-ions that a name gives are not always drawn.

This test deals with T1, recombinant human NR2F6 protein (Homo sapiens, UniProt P10588).
T1 sequence (P10588 1-404): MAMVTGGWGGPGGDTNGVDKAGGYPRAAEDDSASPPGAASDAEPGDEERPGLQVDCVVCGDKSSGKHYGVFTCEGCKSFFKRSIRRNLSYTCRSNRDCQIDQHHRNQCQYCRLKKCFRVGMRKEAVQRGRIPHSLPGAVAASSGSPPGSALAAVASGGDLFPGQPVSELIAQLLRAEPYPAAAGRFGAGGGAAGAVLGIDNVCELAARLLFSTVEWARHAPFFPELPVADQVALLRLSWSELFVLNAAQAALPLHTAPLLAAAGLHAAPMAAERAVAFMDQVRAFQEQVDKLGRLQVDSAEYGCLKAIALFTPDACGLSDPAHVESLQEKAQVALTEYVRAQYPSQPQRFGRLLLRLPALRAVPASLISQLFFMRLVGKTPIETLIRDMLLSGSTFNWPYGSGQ
The experiment in a line: Biochemical NR2F6 binding assay (EnSpire label-free). The following applies: label-free binding to immobilized purified recombinant human NR2F6; ligands 1 nM to 100 uM, 1% DMSO. The procedure:
Purified recombinant human NR2F6 protein was dissolved in immobilization buffer at pH 4.5 and then immobilized in EnSpire-LFB High-Sensitivity User-Activated Plates at the concentration of 50 μg/well plate and left in incubation for 16 h at 4° C. Wells with only immobilization buffer were used as negative control to check the protein coating efficiency. NR2F6 ligands were resuspended in DMSO at the concentration of 10 mM, then dispensed into a plate containing assay buffer at concentrations ranging from 1 nM to 100 uM using an HP-dispenser. DMSO was normalized at the 1% of volume of each well. The final readings were taken over a period of 30 minutes. The label-free responses were measured as shifts in reflected wavelength and are expressed in picometers (pm). Results were analyzed using the EnSpire label-free user interface software, and EC50 and graphs were generated using GraphPad PRISM software. In the tables below, A is <1 μM; B is 1 to 10 μM; C is 10 to 50 μM; and D is >50 μM.
Turning to `O=C(Nc1cccc2cnccc12)[C@H]1CNC[C@H]1c1ccccc1` [Compound I-88, (3R,4R)—N-(Isoquinolin-5-yl)-4-phenylpyrrolidine-3-carboxamide dihydrochloride], the EC50 was 1 to 10 µM. With `O=C(Nc1cccc(-c2ccccc2)c1)[C@H]1CNC[C@@H]1c1ccccc1` [Compound I-37, (3R,4S)—N-(Biphenyl-3-yl)-4-phenylpyrrolidine-3-carboxamide hydrochloride], the EC50 lay in the range of 1 to 10 µM.

Consider `O=C(Nc1cccc2cnccc12)O[C@@H]1CNC[C@H]1c1ccccc1` (racemic) [Compound I-4, (±)-trans-4-Phenylpyrrolidin-3-yl isoquinolin-5-ylcarbamate], for which the EC50 fell in the range of 1 to 10 µM.

As to `O=C(Nc1cccc2cnccc12)[C@H]1CNC[C@@H]1c1ccc(F)cc1` [Compound I-81, (3R,4S)-4-(4-Fluorophenyl)-N-(isoquinolin-5-yl)pyrrolidine-3-carboxamide dihydrochloride], the EC50 is above 50 µM. Under `O=C(NC1CCN(c2ccccc2)CC1)[C@@H]1CNC[C@H]1c1ccccc1` [Compound I-123, (3S,4R)-3-[(l-Phenylpiperidin-4-yl)carbamoyl]-4-phenylpyrrolidine dihydrochloride] stands 1 to 10 µM; under `O=C(Nc1cccc(-c2ccccc2)c1)[C@@H]1CNC[C@H]1c1ccc(F)cc1` (racemic) [Compound I-23, (±)-trans-N-(Biphenyl-3-yl)-4-(4-fluorophenyl)pyrrolidine-3-carboxamide hydrochloride], 1 to 10 µM. Consider `O=C(Nc1cccc(-c2cccnc2)c1)[C@H]1CNC[C@@H]1Cc1ccccc1` (racemic) [Compound I-72, (±)-trans 4-Benzyl-N-[3-(pyridin-3-yl)phenyl]pyrrolidine-3-carboxamide dihydrochloride], for which the EC50 was above 50 µM. Consider `O=C(Nc1cccc(Oc2ccccn2)c1)[C@H]1CNC[C@@H]1c1ccccc1` (racemic) [Compound I-99, (±)-trans-4-Phenyl-N-[3-(pyridin-2-yloxy)phenyl]pyrrolidine-3-carboxamide dihydrochloride], for which the EC50 was above 50 µM.

For the compound `O=C(Nc1cccc(-c2cncnc2)c1)[C@@H]1CNC[C@H]1c1ccccc1` (racemic) [Compound I-53, (±)-trans-4-Phenyl-N-[3-(pyrimidin-5-yl)phenyl]pyrrolidine-3-carboxamide trihydrochloride], the EC50 was above 50 µM.

With `O=C(Nc1cccc2ccccc12)[C@@H]1CNC[C@H]1c1ccccc1` [Compound I-75, (3S,4R)—N-(Naphthalen-1-yl)-4-phenylpyrrolidine-3-carboxamide hydrochloride], the EC50 is 1 to 10 µM. Regarding `CC(=O)N1C[C@@H](C(=O)Nc2cccc(-c3cccnc3)c2)[C@H](c2ccccc2)C1` (racemic) [Compound I-55, (±)-trans-1-Acetyl-4-phenyl-N-[3-(pyridin-3-yl)phenyl]pyrrolidine-3-carboxamide], the EC50 was above 50 µM. Turning to `O=C(Nc1cccc(-c2ccccc2)c1)[C@@H]1CNC[C@H]1c1ccccc1` [Compound I-42, (3S,4R)—N-(Biphenyl-3-yl)-4-phenylpyrrolidine-3-carboxamide hydrochloride], the EC50 lay within 1 to 10 µM.

On to `Cn1ccc2c(NC(=O)[C@H]3CNC[C@@H]3c3ccccc3)cccc2c1=O` [Compound I-84, (3R,4S)—N-(2-Methyl-1-oxo-1,2-dihydroisoquinolin-5-yl)-4-phenylpyrrolidine-3-carboxamide hydrochloride], for which the EC50 is above 50 µM.

For the compound `CN(C(=O)[C@H]1CNC[C@@H]1c1ccccc1)c1cccc2cnccc12` [Compound I-57, (3R,4S)—N-(Isoquinolin-5-yl)-N-methyl-4-phenylpyrrolidine-3-carboxamide dihydrochloride], the EC50 is above 50 µM. Take `O=C(Nc1cc2ccccc2cn1)[C@@H]1CNC[C@H]1c1ccccc1` (racemic) [Compound I-14, (±)-trans-N-(Isoquinolin-3-yl)-4-phenylpyrrolidine-3-carboxamide dihydrochloride]: the EC50 lay in the range of 1 to 10 µM.
